From patent US7709513B2, “Benzooxazol-2-one derivatives as lipase and phospholipase inhibitors” (Sanofi-Aventis, priority 2005, dated 2010)

Target: T1, endothelial lipase (EL) (Homo sapiens, UniProt Q9Y5X9)
T1 construct: made in house; host or cells: recombinant cell lines (CHO, HEK293); concentrated conditioned medium used as enzyme solution
T1 sequence (Q9Y5X9 21-500): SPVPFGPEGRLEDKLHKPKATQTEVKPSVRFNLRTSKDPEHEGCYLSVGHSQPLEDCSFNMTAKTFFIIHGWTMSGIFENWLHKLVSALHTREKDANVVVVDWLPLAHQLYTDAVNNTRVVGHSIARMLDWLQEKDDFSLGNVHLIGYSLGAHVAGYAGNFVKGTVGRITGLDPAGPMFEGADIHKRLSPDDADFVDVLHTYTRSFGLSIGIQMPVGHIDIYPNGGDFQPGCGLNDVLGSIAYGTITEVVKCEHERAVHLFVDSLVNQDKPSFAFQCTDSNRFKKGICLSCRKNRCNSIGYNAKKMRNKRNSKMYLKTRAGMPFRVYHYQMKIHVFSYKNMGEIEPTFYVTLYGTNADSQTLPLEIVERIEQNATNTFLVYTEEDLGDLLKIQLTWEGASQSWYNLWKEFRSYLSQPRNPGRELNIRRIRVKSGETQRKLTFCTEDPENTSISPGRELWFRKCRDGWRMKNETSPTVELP
Experiment: Further EL inhibition assay
Format: biochemical
Details: Bodipy-labelled phospholipid substrate, 37° C., 90 minutes, HPTLC fluorescence readout; EL from conditioned medium of recombinant cell lines (CHO, HEK293)
Text: EL is released as secretory protein in high concentration into cell culture medium (conditioned medium) by recombinant cell lines (CHO, HEK293). This is employed as enzyme solution after concentration.
The phospholipase-specific substrate 1,2-bis(4,4-difluoro-5,7-dimethyl-4-bora-3a,4a-diaza-s-indacene-3-undecanoyl)-sn-glycero-3-phosphocholine, (manufacturer Molecular Probes) is used to characterize the enzymatic activity of endothelial lipase and the effect of inhibitors. Hydrolysis of the A1 ester linkage of this phospholipid by the enzyme liberates the fluorescent dye Bodipy which can be detected after separation by thin-layer chromatography on an HPTLC plate (silica gel 60, Merck) or directly in the reaction vessel by measuring the fluorescence.
The substrate solution is prepared by dissolving 100 μg of 1,2-bis(4,4-difluoro-5,7-dimethyl-4-bora-3a,4a-diaza-s-indacene-3-undecanoyl)-sn-glycero-3-phospho-choline (manufacturer Molecular Probes) in 100 μl of DMSO and taking up in 2.4 mg of tripalmitin (Sigma) in 393 μl of chloroform which comprises 20 mg/ml DOP-choline (1,2-dioleoyl-sn-glycero-3-phosphocholine). 39.3 μl of this lipid mixture are transferred into a fresh reaction vessel, and the solvent is evaporated off. The lipid mixture is dissolved in 4 ml of 200 mM TRIS-HCl, 150 mM sodium chloride, pH=7.4, by sonication twice. The subsequent enzymic reaction takes place at 37° C. for 90 minutes. For this purpose, 20 μl of the substrate solution are incubated with 2 μl of inhibitor of appropriate concentration (dissolved in 10% DMSO, using 10% strength DMSO solution for control) and 2 μl of enzyme solution (conditioned medium). The 4 μl of the assay mixture are loaded onto an HPTLC plate (silica gel 60, Merck), and the liberated fluorescent dye is separated for detection with an eluent (diethyl ether:petroleum benzine:acetic acid [78:22:1]). After evaporation of the eluent, the plate is read in a fluorescence scanner. An increased liberation of the fluorescent dye in the uninhibited reaction is to be observed as a measure of the enzymic activity.

| IC50 | Structure (SMILES) |
| --- | --- |
| 0.51 µM | CC(=O)c1ccc2c(c1)oc(=O)n2C(=O)NCc1ccccc1C [Example 2, 6-Acetyl-2-oxobenzooxazole-3-(2-methylbenzyl)carboxamide] |
| 0.23 µM | O=C(NCc1ccccc1)n1c(=O)oc2ccc(Cl)cc21 [Example 7, 5-Chloro-2-oxobenzooxazole-3-benzylcarboxamide] |
| 0.95 µM | Cc1ccccc1CNC(=O)n1c(=O)oc2ccccc21 [Example 5, 2-Oxobenzooxazole-3-(2-methylbenzyl)carboxamide] |
| 0.13 µM | CC(=O)c1ccc2c(c1)oc(=O)n2C(=O)NCc1ccccc1 [Example 1, 6-Acetyl-2-oxobenzooxazole-3-benzylcarboxamide] |
| 0.06 µM | CCCCCCNC(=O)n1c(=O)oc2cc(C(C)=O)ccc21 [Example 3, 6-Acetyl-2-oxobenzooxazole-3-hexylcarboxamide] |
